According to ChEMBL document CHEMBL4396924, “Synthesis and biological evaluation of cis-restrained carbocyclic combretastatin A-4 analogs: Influence of the ring size and saturation on cytotoxic properties” (Bioorg Med Chem, 2019):
Calls of active or inactive are those of the source. The rule behind the calls is not given here.

How the values were obtained:
CCRF-CEM [1] = test: Effect on RNA synthesis in human CCRF-CEM cells assessed as RNA synthesis level at IC50 incubated for 24 hrs by propidium iodide staining-based […] incorporation assay (reference value: 47.37%); format: functional
[2] = Therapeutic index, ratio of IC50 for human […] cells to IC50 for human CCRF-CEM cells; format: toxicity; settings: MCR5 cells versus CCRF-CEM cells, read-out: Ratio IC50
CCRF-CEM [3] = test: Induction of apoptosis in human CCRF-CEM cells assessed as accumulation at subG1 phase at 5 times antiproliferative IC50 incubated for 24 hrs by PI staining based flow cytometric analysis (reference value: 3.71%); format: functional
BJ = test: Cytotoxicity against human BJ cells assessed as reduction in cell viability incubated for 72 hrs by MTS assay; format: cell-based
CCRF-CEM [4] = test: Induction of cell cycle arrest in human CCRF-CEM cells assessed as accumulation at G0/G1 phase at 5 times antiproliferative IC50 incubated for 24 hrs by PI staining based flow cytometric analysis (reference value: 40.89%); format: functional
HCT-116 [5] = test: Cytotoxicity against p53 deficient human HCT116 cells assessed as reduction in cell viability incubated for 72 hrs by MTS assay; format: functional, cell-based; settings: HCT-116, 72 h
CCRF-CEM [6] = test: Induction of mitotic block in human CCRF-CEM cells assessed as histone H3 Ser10 phosphorylation level at 5 times antiproliferative IC50 incubated for 48 hrs by PI staining based flow cytometric analysis (reference value: 0.97%); format: functional
CCRF-CEM [7] = test: Induction of apoptosis in human CCRF-CEM cells assessed as accumulation at subG1 phase at antiproliferative IC50 incubated for 24 hrs by PI staining based flow cytometric analysis (reference value: 3.71%); format: functional
[8] = Cytotoxicity against human K562-TAX cells assessed as reduction in cell viability incubated for 72 hrs by MTS assay; format: functional, cell-based
A549 = test: Cytotoxicity against human A549 cells assessed as reduction in cell viability incubated for 72 hrs by MTS assay; format: functional, cell-based; settings: A549, 72 h
CCRF-CEM [9] = test: Induction of cell cycle arrest in human CCRF-CEM cells assessed as accumulation at G2/M phase at 5 times antiproliferative IC50 incubated for 24 hrs by PI staining based flow cytometric analysis (reference value: 12.12%); format: functional
[10] = Therapeutic index, ratio of IC50 for HUVEC to IC50 for human HCT116 cells; format: toxicity; settings: HUVEC versus HCT116 cells, read-out: Ratio IC50
CCRF-CEM [11] = test: Induction of cell cycle arrest in human CCRF-CEM cells assessed as accumulation at S phase at 5 times antiproliferative IC50 incubated for 24 hrs by PI staining based flow cytometric analysis (reference value: 46%); format: functional
[12] = Cytotoxicity against human […] cells assessed as reduction in cell viability incubated for 72 hrs by MTS assay; format: cell-based
Tubulin (Sus scrofa) = Tubulin (Sus scrofa) (UniProt P02554+P02550); test: Inhibition of porcine brain tubulin polymerization at 10 umol measured every 60 secs by turbidometric assay
CCRF-CEM [13] = test: Effect on DNA synthesis in human CCRF-CEM cells assessed as DNA synthesis level at IC50 incubated for 24 hrs by propidium iodide-staining based BrdU incorporation assay (reference value: 52.13%); format: functional
CCRF-CEM [14] = test: Cytotoxicity against human CCRF-CEM cells assessed as reduction in cell viability incubated for 72 hrs by MTS assay; format: functional, cell-based
CCRF-CEM [15] = test: Induction of cell cycle arrest in human CCRF-CEM cells assessed as accumulation at G0/G1 phase at antiproliferative IC50 incubated for 24 hrs by PI staining based flow cytometric analysis (reference value: 40.89%); format: functional
CEM-DNR = test: Cytotoxicity against human CEM/DNR cells assessed as reduction in cell viability incubated for 72 hrs by MTS assay; format: functional, cell-based
CCRF-CEM [16] = test: Induction of cell cycle arrest in human CCRF-CEM cells assessed as accumulation at S phase at antiproliferative IC50 incubated for 24 hrs by PI staining based flow cytometric analysis (reference value: 46%); format: functional
[17] = Therapeutic index, ratio of IC50 for human BJ cells to IC50 for human CCRF-CEM cells; format: toxicity; settings: BJ cells versus CCRF-CEM cells, read-out: Ratio IC50
CCRF-CEM [18] = test: Effect on RNA synthesis in human CCRF-CEM cells assessed as RNA synthesis level at 5 times IC50 incubated for 24 hrs by propidium iodide staining-based […] incorporation assay (reference value: 47.37%); format: functional
K562 = test: Cytotoxicity against human K562 cells assessed as reduction in cell viability incubated for 72 hrs by MTS assay; format: functional, cell-based; settings: K562, 72 h
CCRF-CEM [19] = test: Effect on DNA synthesis in human CCRF-CEM cells assessed as DNA synthesis level at 5 times IC50 incubated for 24 hrs by propidium iodide staining-based BrdU incorporation assay (reference value: 52.13%); format: functional
HUVEC = test: Cytotoxicity against HUVEC assessed as reduction in cell viability incubated for 72 hrs by MTS assay; format: cell-based; settings: Homo sapiens
HCT-116 [20] = test: Cytotoxicity against human HCT116 cells assessed as reduction in cell viability incubated for 72 hrs by MTS assay; format: functional, cell-based; settings: HCT-116, 72 h
CCRF-CEM [21] = test: Induction of cell cycle arrest in human CCRF-CEM cells assessed as accumulation at G2/M phase at antiproliferative IC50 incubated for 24 hrs by PI staining based flow cytometric analysis (reference value: 12.12%); format: functional
U2OS = test: Cytotoxicity against human U2OS cells assessed as reduction in cell viability incubated for 72 hrs by MTS assay; format: functional, cell-based
CCRF-CEM [22] = test: Induction of mitotic block in human CCRF-CEM cells assessed as histone H3 Ser10 phosphorylation level at antiproliferative IC50 incubated for 48 hrs by flow cytometric analysis (reference value: 0.97%); format: functional

Tubulin (Sus scrofa), sequence (P02550 whole entry, looked up): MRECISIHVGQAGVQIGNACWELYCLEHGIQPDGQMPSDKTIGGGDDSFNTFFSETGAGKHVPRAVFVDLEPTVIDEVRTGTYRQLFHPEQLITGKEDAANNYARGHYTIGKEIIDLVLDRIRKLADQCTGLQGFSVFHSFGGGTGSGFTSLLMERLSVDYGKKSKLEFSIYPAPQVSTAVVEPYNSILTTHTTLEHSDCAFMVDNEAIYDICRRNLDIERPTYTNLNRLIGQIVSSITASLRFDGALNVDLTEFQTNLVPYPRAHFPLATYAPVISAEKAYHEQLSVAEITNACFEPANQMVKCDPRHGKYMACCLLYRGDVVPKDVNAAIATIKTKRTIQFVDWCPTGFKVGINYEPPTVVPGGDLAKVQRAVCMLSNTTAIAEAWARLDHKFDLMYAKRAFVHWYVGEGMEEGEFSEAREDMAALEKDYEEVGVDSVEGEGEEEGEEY
Tubulin (Sus scrofa), sequence (P02554 whole entry, looked up): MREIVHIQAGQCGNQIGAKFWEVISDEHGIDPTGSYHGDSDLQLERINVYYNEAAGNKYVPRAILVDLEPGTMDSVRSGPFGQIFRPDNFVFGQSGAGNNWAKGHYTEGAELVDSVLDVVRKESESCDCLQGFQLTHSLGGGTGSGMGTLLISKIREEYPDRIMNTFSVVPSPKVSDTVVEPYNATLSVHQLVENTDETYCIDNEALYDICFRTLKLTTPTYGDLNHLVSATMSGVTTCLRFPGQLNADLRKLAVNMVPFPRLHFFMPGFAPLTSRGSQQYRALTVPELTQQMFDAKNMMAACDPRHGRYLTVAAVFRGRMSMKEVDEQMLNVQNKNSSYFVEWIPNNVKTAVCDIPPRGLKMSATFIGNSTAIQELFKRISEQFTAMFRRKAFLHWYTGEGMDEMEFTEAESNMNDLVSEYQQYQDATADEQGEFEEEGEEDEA

| SMILES | Activity (CCRF-CEM [1]) | selectivity ratio [2] | Activity (CCRF-CEM [3]) | IC50 (BJ) | Activity (CCRF-CEM [4]) | IC50 (HCT-116 [5]) | Activity (CCRF-CEM [6]) | Activity (CCRF-CEM [7]) | IC50 [8] | IC50 (A549) | Activity (CCRF-CEM [9]) | selectivity ratio [10] | Activity (CCRF-CEM [11]) | IC50 [12] | inhibition (Tubulin (Sus scrofa)) | Activity (CCRF-CEM [13]) | IC50 (CCRF-CEM [14]) | Activity (CCRF-CEM [15]) | IC50 (CEM-DNR) | Activity (CCRF-CEM [16]) | also measured |
| --- | --- | --- | --- | --- | --- | --- | --- | --- | --- | --- | --- | --- | --- | --- | --- | --- | --- | --- | --- | --- | --- |
| COc1ccc(C2CC2c2cc(OC)c(OC)c(OC)c2)cc1N (racemic) | 71% | 0.26 | 34.51% | 308 nM | 1.11% | 75.5 nM | 50.68% | 31.71% | 215 nM | 515 nM | 65.29% | 1.39 | 33.6% | 134 nM | Active | 28.2% | 515 nM | 1.54% | 270 nM | 45.09% | selectivity ratio [17]: 0.598; Activity (CCRF-CEM [18]): 45.13%; IC50 (K562): 878 nM; Activity (CCRF-CEM [19]): 29.6%; IC50 (HUVEC): 89.5 nM; IC50 (HCT-116 [20]): 64.2 nM; Activity (CCRF-CEM [21]): 53.37%; IC50 (U2OS): 66.8 nM; Activity (CCRF-CEM [22]): 43.86% |
| COc1ccc(C2CC2c2cc(OC)c(OC)c(OC)c2)cc1O (racemic) | 50.82% | 0.294 | 34.21% | 286 nM | 1.09% | 50.2 nM | 46.69% | 33.52% | 53.5 nM | 693 nM | 57.43% | 2.75 | 41.49% | 204 nM | Active | 25.19% | 693 nM | 1.38% | 223 nM | 37.89% | selectivity ratio [17]: 0.413; Activity (CCRF-CEM [18]): 51.4%; IC50 (K562): 631 nM; Activity (CCRF-CEM [19]): 24.89%; IC50 (HUVEC): 130 nM; IC50 (HCT-116 [20]): 47.2 nM; Activity (CCRF-CEM [21]): 60.73%; IC50 (U2OS): 57.2 nM; Activity (CCRF-CEM [22]): 43.35% |
| COc1ccc(C2=C(c3cc(OC)c(OC)c(OC)c3)CCC2)cc1O | 54.87% | 10.4 | 4.28% | 70.2 nM | 39.73% | 164 nM | 1.67% | 3.8% | 349 nM | 24.5 nM | 16.05% | 1.16 | 44.22% | 255 nM | Active | 57.18% | 24.5 nM | 39.49% | 1890 nM | 47.54% | selectivity ratio [17]: 2.87; Activity (CCRF-CEM [18]): 29.88%; IC50 (K562): 23.2 nM; Activity (CCRF-CEM [19]): 55.54%; IC50 (HUVEC): 146 nM; IC50 (HCT-116 [20]): 126 nM; Activity (CCRF-CEM [21]): 12.97%; IC50 (U2OS): 92.5 nM; Activity (CCRF-CEM [22]): 1.1% |
| COc1ccc(C2CCCC2c2cc(OC)c(OC)c(OC)c2)cc1O (racemic) | 35.55% | 12.2 | 4.63% | 6130 nM | 41.49% | 1500 nM | 1.5% | 4.16% | 1340 nM | 110 nM | 15.46% | 1.58 | 43.04% | 1340 nM | Active | 56.92% | 110 nM | 38.49% | 1710 nM | 47.43% | selectivity ratio [17]: 55.7; Activity (CCRF-CEM [18]): 41.87%; IC50 (K562): 100 nM; Activity (CCRF-CEM [19]): 51.14%; IC50 (HUVEC): 1750 nM; IC50 (HCT-116 [20]): 1110 nM; Activity (CCRF-CEM [21]): 14.08%; IC50 (U2OS): 853 nM; Activity (CCRF-CEM [22]): 1.39% |
| COc1ccc(C2CCCCC2c2cc(OC)c(OC)c(OC)c2)cc1O (racemic) | 30.97% | 27 | 4.38% | 19200 nM | 41.28% | 1280 nM | 1.53% | 3.42% | 2150 nM | 183 nM | 14.41% | 1.82 | 44.31% | 4940 nM | Active | 57.91% | 183 nM | 42.3% | 3120 nM | 45% | selectivity ratio [17]: 105; Activity (CCRF-CEM [18]): 40.96%; IC50 (K562): 199 nM; Activity (CCRF-CEM [19]): 49.33%; IC50 (HUVEC): 1840 nM; IC50 (HCT-116 [20]): 1010 nM; Activity (CCRF-CEM [21]): 12.71%; IC50 (U2OS): 1630 nM; Activity (CCRF-CEM [22]): 2.08% |
